Data reported in article PMC9814781, “Structure-based design of a dual-warhead covalent inhibitor of FGFR4” (Communications Chemistry, 2022).

Legend:
ITK = ITK (Homo sapiens, UniProt Q08881); experiment: Kinase selectivity profiling
FGFR2 = FGFR2 (Homo sapiens, UniProt P21802); experiment: Kinase selectivity profiling
EPHA8 = EPHA8 (Homo sapiens, UniProt P29322); experiment: Kinase selectivity profiling
TAOK1 = TAOK1 (Homo sapiens, UniProt Q7L7X3); experiment: Kinase selectivity profiling
KIT[D816V] = KIT[D816V] (Homo sapiens, UniProt P10721, D816V); experiment: Kinase selectivity profiling
CDK7/CycH/MAT1 = CDK7/CycH/MAT1 (Homo sapiens, UniProt P50613); experiment: Kinase selectivity profiling
JNK1 = JNK1 (Homo sapiens, UniProt P45983); experiment: Kinase selectivity profiling
PIM3 = PIM3 (Homo sapiens, UniProt Q86V86); experiment: Kinase selectivity profiling
PIM2 = PIM2 (Homo sapiens, UniProt Q9P1W9); experiment: Kinase selectivity profiling
DCAMKL1 = DCAMKL1 (Homo sapiens, UniProt O15075); experiment: Kinase selectivity profiling
CK1ε = CK1ε (Homo sapiens, UniProt P49674); experiment: Kinase selectivity profiling
KIT = KIT (Homo sapiens, UniProt P10721); experiment: Kinase selectivity profiling
EGFR = EGFR (Homo sapiens, UniProt P00533); experiment: Kinase selectivity profiling
ROCK2 = ROCK2 (Homo sapiens, UniProt O75116); experiment: Kinase selectivity profiling
CK1α(CSNK1A1) = CK1α(CSNK1A1) (Homo sapiens, UniProt P48729); experiment: Kinase selectivity profiling
ACK = ACK (Homo sapiens, UniProt Q07912); experiment: Kinase selectivity profiling
EPHB2 = EPHB2 (Homo sapiens, UniProt P29323); experiment: Kinase selectivity profiling
FAK = FAK (Homo sapiens, UniProt Q05397); experiment: Kinase selectivity profiling
CDK5/p35NCK = CDK5/p35NCK (Homo sapiens, UniProt Q00535); experiment: Kinase selectivity profiling
BMX = BMX (Homo sapiens, UniProt P51813); experiment: Kinase selectivity profiling
CK1δ = CK1δ (Homo sapiens, UniProt P48730); experiment: Kinase selectivity profiling
MST2 = MST2 (Homo sapiens, UniProt Q13188); experiment: Kinase selectivity profiling
AMPKα1/β1/γ1 = AMPKα1/β1/γ1 (Homo sapiens, UniProt Q13131); experiment: Kinase selectivity profiling
RSK3 = RSK3 (Homo sapiens, UniProt Q15349); experiment: Kinase selectivity profiling
CK2α1/β = CK2α1/β (Homo sapiens, UniProt P68400); experiment: Kinase selectivity profiling
TTK = TTK (Homo sapiens, UniProt P33981); experiment: Kinase selectivity profiling
ALK = ALK (Homo sapiens, UniProt Q9UM73); experiment: Kinase selectivity profiling
NEK1 = NEK1 (Homo sapiens, UniProt Q96PY6); experiment: Kinase selectivity profiling
JNK3 = JNK3 (Homo sapiens, UniProt P53779); experiment: Kinase selectivity profiling
GSH reaction assay = format: in vitro ADME; conditions: GSH 5 mM, inhibitor 1 mM, 37°C, 10–60 min
Procedure: GSH (5 mM) and inhibitor (1 mM) or DMSO control were mixed in equal volumes and reacted at 37°C for 10 min, 20 min, 30 min, 40 min, 50 min, and 60 min. The remaining GSH was detected with DTNB (Beyotime, China), and the absorption light was measured at 412 nm on a plate reader (Perkin-Elmer). Data were determined using the time (min) versus % of control in Origin 2018 software.

IGF1R = IGF1R (Homo sapiens, UniProt P08069); experiment: Kinase selectivity profiling
p38β = p38β (Homo sapiens, UniProt Q15759); experiment: Kinase selectivity profiling
EPHA1 = EPHA1 (Homo sapiens, UniProt P21709); experiment: Kinase selectivity profiling
IKK-alpha(CHUK) = IKK-alpha(CHUK) (Homo sapiens, UniProt O15111); experiment: Kinase selectivity profiling
CLK3 = CLK3 (Homo sapiens, UniProt P49761); experiment: Kinase selectivity profiling
AXL = AXL (Homo sapiens, UniProt P30530); experiment: Kinase selectivity profiling
RSK4 = RSK4 (Homo sapiens, UniProt Q9UK32); experiment: Kinase selectivity profiling
parental Ba/F3 cells = experiment: Ba/F3 cell viability assay; format: cell-based; conditions: Mus musculus, BaF3, 72 h, CCK-8
FLT3 = FLT3 (Homo sapiens, UniProt P36888); experiment: Kinase selectivity profiling

EGFR, sequence (P00533 25-1210): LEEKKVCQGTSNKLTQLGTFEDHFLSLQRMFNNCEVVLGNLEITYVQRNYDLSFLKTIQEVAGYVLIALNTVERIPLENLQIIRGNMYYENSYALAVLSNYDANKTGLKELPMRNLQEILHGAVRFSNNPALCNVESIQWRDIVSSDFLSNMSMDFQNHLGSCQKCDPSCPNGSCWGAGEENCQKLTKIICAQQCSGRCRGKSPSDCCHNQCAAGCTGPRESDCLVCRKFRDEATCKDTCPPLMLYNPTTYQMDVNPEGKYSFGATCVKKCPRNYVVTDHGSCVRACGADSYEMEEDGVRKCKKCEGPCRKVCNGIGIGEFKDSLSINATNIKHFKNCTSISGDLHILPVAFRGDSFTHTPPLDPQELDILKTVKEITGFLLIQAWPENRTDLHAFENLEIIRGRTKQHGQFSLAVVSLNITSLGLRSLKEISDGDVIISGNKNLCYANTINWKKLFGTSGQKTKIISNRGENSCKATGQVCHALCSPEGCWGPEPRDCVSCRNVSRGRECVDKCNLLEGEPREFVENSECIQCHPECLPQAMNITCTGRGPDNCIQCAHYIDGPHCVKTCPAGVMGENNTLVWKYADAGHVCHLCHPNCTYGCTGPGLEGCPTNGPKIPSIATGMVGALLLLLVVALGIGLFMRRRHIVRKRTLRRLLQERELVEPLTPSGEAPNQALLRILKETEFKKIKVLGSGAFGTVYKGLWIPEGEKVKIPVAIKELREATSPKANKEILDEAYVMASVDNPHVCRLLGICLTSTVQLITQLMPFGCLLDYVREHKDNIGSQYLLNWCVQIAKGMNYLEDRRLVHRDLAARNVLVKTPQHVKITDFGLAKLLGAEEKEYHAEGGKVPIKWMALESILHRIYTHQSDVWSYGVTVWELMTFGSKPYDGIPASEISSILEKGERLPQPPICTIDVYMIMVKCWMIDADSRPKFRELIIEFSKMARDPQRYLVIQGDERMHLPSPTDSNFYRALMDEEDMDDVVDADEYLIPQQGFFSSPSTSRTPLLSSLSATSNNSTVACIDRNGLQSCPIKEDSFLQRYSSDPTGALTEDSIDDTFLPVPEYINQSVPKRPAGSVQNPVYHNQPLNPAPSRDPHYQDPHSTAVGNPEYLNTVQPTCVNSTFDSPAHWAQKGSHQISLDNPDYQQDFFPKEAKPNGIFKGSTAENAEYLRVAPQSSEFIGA
CLK3, sequence (P49761 whole entry): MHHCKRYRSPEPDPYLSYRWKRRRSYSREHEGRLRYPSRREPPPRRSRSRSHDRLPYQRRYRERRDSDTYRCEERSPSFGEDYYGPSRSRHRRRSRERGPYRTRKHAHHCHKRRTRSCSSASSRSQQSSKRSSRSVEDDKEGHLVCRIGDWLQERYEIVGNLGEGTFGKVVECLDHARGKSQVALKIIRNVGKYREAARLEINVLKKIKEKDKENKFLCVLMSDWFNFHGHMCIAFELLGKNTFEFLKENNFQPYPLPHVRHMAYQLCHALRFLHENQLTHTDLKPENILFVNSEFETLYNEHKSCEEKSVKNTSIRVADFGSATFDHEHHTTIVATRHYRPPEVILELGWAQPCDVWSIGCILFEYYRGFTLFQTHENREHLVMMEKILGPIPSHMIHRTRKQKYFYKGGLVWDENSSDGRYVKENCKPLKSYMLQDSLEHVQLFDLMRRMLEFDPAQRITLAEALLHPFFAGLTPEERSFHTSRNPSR
CK1δ, sequence (P48730 whole entry): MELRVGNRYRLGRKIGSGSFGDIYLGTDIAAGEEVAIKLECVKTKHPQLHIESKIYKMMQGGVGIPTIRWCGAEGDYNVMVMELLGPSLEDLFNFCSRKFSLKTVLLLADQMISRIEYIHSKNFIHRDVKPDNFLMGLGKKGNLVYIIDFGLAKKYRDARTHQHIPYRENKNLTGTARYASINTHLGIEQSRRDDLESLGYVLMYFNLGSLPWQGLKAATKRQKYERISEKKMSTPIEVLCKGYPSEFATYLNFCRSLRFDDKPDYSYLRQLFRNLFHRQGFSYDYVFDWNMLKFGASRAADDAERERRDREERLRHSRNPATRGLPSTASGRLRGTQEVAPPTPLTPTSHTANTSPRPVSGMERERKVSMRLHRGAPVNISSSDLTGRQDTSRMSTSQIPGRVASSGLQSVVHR
EPHA1, sequence (P21709 26-976): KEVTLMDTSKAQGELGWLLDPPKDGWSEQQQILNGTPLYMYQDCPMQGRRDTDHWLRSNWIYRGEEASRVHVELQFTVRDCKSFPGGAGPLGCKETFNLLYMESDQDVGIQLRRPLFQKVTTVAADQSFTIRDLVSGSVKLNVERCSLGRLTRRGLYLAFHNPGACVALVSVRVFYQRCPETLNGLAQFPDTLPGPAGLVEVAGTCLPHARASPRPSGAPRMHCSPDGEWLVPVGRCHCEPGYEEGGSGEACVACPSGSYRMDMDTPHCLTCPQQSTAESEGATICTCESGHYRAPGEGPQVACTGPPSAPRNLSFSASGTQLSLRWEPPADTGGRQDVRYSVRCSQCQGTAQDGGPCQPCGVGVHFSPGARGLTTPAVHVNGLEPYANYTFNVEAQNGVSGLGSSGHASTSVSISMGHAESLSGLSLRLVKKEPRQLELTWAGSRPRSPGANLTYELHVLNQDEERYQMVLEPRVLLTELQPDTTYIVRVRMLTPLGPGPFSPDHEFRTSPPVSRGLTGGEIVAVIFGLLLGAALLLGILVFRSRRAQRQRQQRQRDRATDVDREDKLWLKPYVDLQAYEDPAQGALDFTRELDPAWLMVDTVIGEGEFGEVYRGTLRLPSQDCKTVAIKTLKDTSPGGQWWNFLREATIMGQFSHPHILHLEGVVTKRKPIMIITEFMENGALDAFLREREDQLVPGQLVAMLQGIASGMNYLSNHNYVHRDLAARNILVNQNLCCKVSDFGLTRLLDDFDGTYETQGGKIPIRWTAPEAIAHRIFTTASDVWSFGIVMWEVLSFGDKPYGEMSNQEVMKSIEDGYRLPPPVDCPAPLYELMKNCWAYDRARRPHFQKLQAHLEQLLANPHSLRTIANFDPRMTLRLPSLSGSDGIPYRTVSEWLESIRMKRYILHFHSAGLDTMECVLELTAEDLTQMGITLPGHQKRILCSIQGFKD
ALK, sequence (Q9UM73 19-1620): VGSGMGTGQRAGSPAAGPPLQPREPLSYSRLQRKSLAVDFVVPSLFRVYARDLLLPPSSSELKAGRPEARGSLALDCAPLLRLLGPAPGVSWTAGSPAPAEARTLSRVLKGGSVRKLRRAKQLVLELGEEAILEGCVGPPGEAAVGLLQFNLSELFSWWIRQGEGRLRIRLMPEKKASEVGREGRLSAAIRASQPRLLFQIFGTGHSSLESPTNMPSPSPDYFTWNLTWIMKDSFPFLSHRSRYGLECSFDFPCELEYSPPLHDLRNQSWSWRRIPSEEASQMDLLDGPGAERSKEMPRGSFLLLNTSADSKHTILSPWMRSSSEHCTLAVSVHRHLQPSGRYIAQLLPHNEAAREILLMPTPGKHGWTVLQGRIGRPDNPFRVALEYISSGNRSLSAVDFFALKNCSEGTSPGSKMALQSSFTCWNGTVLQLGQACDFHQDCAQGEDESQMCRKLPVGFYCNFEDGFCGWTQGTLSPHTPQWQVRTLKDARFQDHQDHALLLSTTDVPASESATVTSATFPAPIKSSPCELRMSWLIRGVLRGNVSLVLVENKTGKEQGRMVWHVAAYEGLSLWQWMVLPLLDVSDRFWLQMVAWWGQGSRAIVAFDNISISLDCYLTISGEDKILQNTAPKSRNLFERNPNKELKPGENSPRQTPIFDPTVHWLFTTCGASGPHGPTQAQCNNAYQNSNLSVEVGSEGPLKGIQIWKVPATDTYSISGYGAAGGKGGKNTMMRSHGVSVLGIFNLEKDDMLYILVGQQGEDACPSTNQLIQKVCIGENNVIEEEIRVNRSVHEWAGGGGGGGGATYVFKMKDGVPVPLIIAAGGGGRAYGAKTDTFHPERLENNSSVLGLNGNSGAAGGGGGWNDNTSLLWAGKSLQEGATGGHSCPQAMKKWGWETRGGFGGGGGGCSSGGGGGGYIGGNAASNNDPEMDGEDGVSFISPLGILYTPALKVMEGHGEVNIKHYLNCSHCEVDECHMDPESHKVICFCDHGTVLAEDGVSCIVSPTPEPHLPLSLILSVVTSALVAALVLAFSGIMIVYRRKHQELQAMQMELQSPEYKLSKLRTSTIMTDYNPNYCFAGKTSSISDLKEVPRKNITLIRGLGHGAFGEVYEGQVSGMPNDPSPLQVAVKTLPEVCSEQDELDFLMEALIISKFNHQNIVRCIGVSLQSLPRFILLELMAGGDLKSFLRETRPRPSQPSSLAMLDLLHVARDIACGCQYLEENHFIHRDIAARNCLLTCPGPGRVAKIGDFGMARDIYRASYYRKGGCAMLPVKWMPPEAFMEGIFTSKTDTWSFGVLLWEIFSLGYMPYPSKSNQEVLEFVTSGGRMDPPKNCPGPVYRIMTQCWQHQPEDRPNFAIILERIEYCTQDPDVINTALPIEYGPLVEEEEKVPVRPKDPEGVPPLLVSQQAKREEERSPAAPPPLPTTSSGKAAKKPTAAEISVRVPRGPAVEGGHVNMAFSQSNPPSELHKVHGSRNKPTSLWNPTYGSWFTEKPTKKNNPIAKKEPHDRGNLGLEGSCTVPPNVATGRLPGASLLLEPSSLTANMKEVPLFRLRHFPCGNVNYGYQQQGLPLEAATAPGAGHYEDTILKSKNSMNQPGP
JNK1, sequence (P45983 whole entry): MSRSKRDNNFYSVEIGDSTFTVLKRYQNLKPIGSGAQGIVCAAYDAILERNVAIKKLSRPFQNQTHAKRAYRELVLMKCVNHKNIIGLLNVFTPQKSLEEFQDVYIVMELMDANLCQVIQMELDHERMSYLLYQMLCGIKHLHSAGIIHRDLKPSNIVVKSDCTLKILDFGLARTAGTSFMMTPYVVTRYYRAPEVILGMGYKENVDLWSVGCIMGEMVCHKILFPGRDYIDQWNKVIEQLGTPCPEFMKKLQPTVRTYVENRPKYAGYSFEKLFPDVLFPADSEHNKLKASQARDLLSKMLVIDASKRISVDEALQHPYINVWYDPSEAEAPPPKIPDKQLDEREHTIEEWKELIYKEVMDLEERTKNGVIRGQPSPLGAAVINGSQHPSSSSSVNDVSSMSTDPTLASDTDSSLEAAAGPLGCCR

For C=CC(=O)Nc1ccccc1Nc1ncc2c(n1)N(CCCN1CCN(C(=O)C=C)CC1)C(=O)N(c1cc(OC)cc(OC)c1)C2 [CXF-009], the inhibition at 1 µM (ITK) was 4.35%, the inhibition at 1 µM (FGFR2) was 0.27% and the inhibition at 1 µM (EPHA8) was -0.52%. It also gave an inhibition at 1 µM (TAOK1) of -0.59%, an inhibition at 1 µM (KIT[D816V]) of -6.19% and an inhibition at 1 µM (CDK7/CycH/MAT1) of 1.27%. The inhibition at 1 µM (JNK1) was -4.4%, the inhibition at 1 µM (PIM3) was 17.5% and the inhibition at 1 µM (PIM2) was 2.38%. For the same molecule, the inhibition at 1 µM (DCAMKL1) was 13.4%, the inhibition at 1 µM (CK1ε) was -4.6% and the inhibition at 1 µM (KIT) was -14.3%. The inhibition at 1 µM (EGFR) was -16.3%, the inhibition at 1 µM (ROCK2) was -2.53% and the inhibition at 1 µM (CK1α(CSNK1A1)) was 2.6%. For the same molecule, the inhibition at 1 µM (ACK) was 4.18%, the inhibition at 1 µM (EPHB2) was -3.12% and the inhibition at 1 µM (FAK) was -0.41%. It also gave an inhibition at 1 µM (CDK5/p35NCK) of -0.87%, an inhibition at 1 µM (BMX) of 10.5% and an inhibition at 1 µM (CK1δ) of -1.29%. It also gave an inhibition at 1 µM (MST2) of -8.12%, an inhibition at 1 µM (AMPKα1/β1/γ1) of 2.23% and an inhibition at 1 µM (RSK3) of 7.58%. For the same molecule, the inhibition at 1 µM (CK2α1/β) was -3.22%, the inhibition at 1 µM (TTK) was 6.62% and the inhibition at 1 µM (ALK) was 7.28%. The inhibition at 1 µM (NEK1) was 1.39%, the inhibition at 1 µM (JNK3) was -3.67% and the “GSH reactivity (remaining GSH, DTNB)” value (GSH reaction assay) was “slightly more reactive to GSH than PRN1371”. For the same molecule, the inhibition at 1 µM (IGF1R) was -2.13%, the inhibition at 1 µM (p38β) was 2.25% and the inhibition at 1 µM (EPHA1) was 2.15%. The inhibition at 1 µM (IKK-alpha(CHUK)) was 2.35%, the inhibition at 1 µM (CLK3) was -0.52% and the inhibition at 1 µM (AXL) was -7.53%. The inhibition at 1 µM (RSK4) was 0%, the IC50 (parental Ba/F3 cells) was over 5 µM and the inhibition at 1 µM (FLT3) was -1.11%.
